In ChEMBL document CHEMBL3885861, “Open TG-GATES”:

Organism: Rattus norvegicus
Experiment: Open TG-GATES - Regimen: Single
Format: toxicity, organism-based, Sprague-Dawley
Set-up: regimen Single, gender Male, age 6 weeks
Details: in vivo, po, 0 mg/kg, route gavage, dose level Control; for APTT / Bas / Eos / Fbg / Hb / Ht / Lym / MCH / MCHC / MCV / Mono / Neu / PT / Plat / RBC / Ret / WBC: tissue Blood; for KIDNEY_L / KIDNEY_R / KIDNEY_TOTAL: tissue Kidney; for LIVER: tissue Liver; for A/G / ALP / ALT / AST / BUN / CRE / Ca / Cl / DBIL / GLC / IP / K / LDH / Na / PL / RALB / TBIL / TC / TG / TP / gamma-GTP: tissue Plasma

SMILES: CCOC(=O)C(C)(C)Oc1ccc(Cl)cc1 [CLOFIBRATE]
- TERMINAL_BW (3 h): 228.9 g
- APTT (3 h): 18.8 s
- Bas (3 h): 0%
- Eos (3 h): 0.8%
- Fbg (3 h): 234.6 mg/dL
- Hb (3 h): 13.3 g/dL
- Ht (3 h): 38.4%
- Lym (3 h): 81.8%
- MCH (3 h): 21.5 pg
- MCHC (3 h): 34.9%
- MCV (3 h): 61.6 fL
- Mono (3 h): 2.4%
- Neu (3 h): 14.4%
- PT (3 h): 12.2 s
- Plat (3 h): 137.2 x10_4/uL
- RBC (3 h): 623.6 x10_4/ul
- Ret (3 h): 7.6%
- WBC (3 h): 86.9 x10_2/uL
- KIDNEY_L (3 h): 0.9 g
- KIDNEY_R (3 h): 0.9 g
- KIDNEY_TOTAL (3 h): 1.8 g
- LIVER (3 h): 10.8 g
- A/G (3 h): 1.6
- ALP (3 h): 1250.4 IU/L
- ALT (3 h): 37.6 IU/L
- AST (3 h): 75.6 IU/L
- BUN (3 h): 11.6 mg/dL
- CRE (3 h): 0.4 mg/dL
- Ca (3 h): 11 mg/dL
- Cl (3 h): 101.8 meq/L
- DBIL (3 h): 0.4 mg/dL
- GLC (3 h): 193.4 mg/dL
- IP (3 h): 8.4 mg/dL
- K (3 h): 3.8 meq/L
- LDH (3 h): 218.8 IU/L
- Na (3 h): 139 meq/L
- PL (3 h): 184 mg/dL
- RALB (3 h): 3.6 g/dL
- TBIL (3 h): 0.4 mg/dL
- TC (3 h): 79.8 mg/dL
- TG (3 h): 233.2 mg/dL
- TP (3 h): 5.8 g/dL
- gamma-GTP (3 h): 1 IU/L
- TERMINAL_BW (6 h): 225.4 g
- APTT (6 h): 18.9 s
- Bas (6 h): 0%
- Eos (6 h): 1%
- Fbg (6 h): 229.6 mg/dL
- Hb (6 h): 13.7 g/dL
- Ht (6 h): 39.7%
- Lym (6 h): 76.8%
- MCH (6 h): 20.9 pg
- MCHC (6 h): 34.5%
- MCV (6 h): 60.7 fL
- Mono (6 h): 3.4%
- Neu (6 h): 18.4%
- PT (6 h): 12.5 s
- Plat (6 h): 131.5 x10_4/uL
- RBC (6 h): 654.6 x10_4/ul
- Ret (6 h): 7.7%
- WBC (6 h): 91.8 x10_2/uL
- KIDNEY_L (6 h): 1 g
- KIDNEY_R (6 h): 1 g
- KIDNEY_TOTAL (6 h): 2 g
- LIVER (6 h): 10 g
- A/G (6 h): 1.7
- ALP (6 h): 1002.8 IU/L
- ALT (6 h): 31.2 IU/L
- AST (6 h): 67.2 IU/L
- BUN (6 h): 8.6 mg/dL
- CRE (6 h): 0.3 mg/dL
- Ca (6 h): 10.7 mg/dL
- Cl (6 h): 103.2 meq/L
- DBIL (6 h): 0.1 mg/dL
- GLC (6 h): 192.2 mg/dL
- IP (6 h): 8.8 mg/dL
- K (6 h): 3.9 meq/L
- LDH (6 h): 224 IU/L
- Na (6 h): 140.4 meq/L
- PL (6 h): 157.6 mg/dL
- RALB (6 h): 3.5 g/dL
- TBIL (6 h): 0.2 mg/dL
- TC (6 h): 76.2 mg/dL
- TG (6 h): 86 mg/dL
- TP (6 h): 5.7 g/dL
- gamma-GTP (6 h): 1 IU/L
- TERMINAL_BW (9 h): 221.7 g
- APTT (9 h): 18.1 s
- Bas (9 h): 0%
- Eos (9 h): 1%
- Fbg (9 h): 234.4 mg/dL
- Hb (9 h): 13.4 g/dL
- Ht (9 h): 38.5%
- Lym (9 h): 73.2%
- MCH (9 h): 20.8 pg
- MCHC (9 h): 34.9%
- MCV (9 h): 59.7 fL
- Mono (9 h): 2.6%
- Neu (9 h): 22.8%
- PT (9 h): 13 s
- Plat (9 h): 137.3 x10_4/uL
- RBC (9 h): 644.4 x10_4/ul
- Ret (9 h): 7.1%
- WBC (9 h): 78.9 x10_2/uL
- KIDNEY_L (9 h): 0.9 g
- KIDNEY_R (9 h): 1 g
- KIDNEY_TOTAL (9 h): 1.9 g
- LIVER (9 h): 9 g
- A/G (9 h): 1.6
- ALP (9 h): 1006.6 IU/L
- ALT (9 h): 27 IU/L
- AST (9 h): 63.6 IU/L
- BUN (9 h): 11.2 mg/dL
- CRE (9 h): 0.4 mg/dL
- Ca (9 h): 10.2 mg/dL
- Cl (9 h): 103 meq/L
- DBIL (9 h): 0.082 mg/dL
- GLC (9 h): 204.6 mg/dL
- IP (9 h): 10.2 mg/dL
- K (9 h): 3.7 meq/L
- LDH (9 h): 223.8 IU/L
- Na (9 h): 141.2 meq/L
- PL (9 h): 136.8 mg/dL
- RALB (9 h): 3.3 g/dL
- TBIL (9 h): 0.1 mg/dL
- TC (9 h): 64.2 mg/dL
- TG (9 h): 68.2 mg/dL
- TP (9 h): 5.5 g/dL
- gamma-GTP (9 h): 0.8 IU/L
- TERMINAL_BW (24 h): 236.7 g
- APTT (24 h): 18.6 s
- Bas (24 h): 0%
- Eos (24 h): 1%
- Fbg (24 h): 230.2 mg/dL
- Hb (24 h): 13.7 g/dL
- Ht (24 h): 39.5%
- Lym (24 h): 80.8%
- MCH (24 h): 20.7 pg
- MCHC (24 h): 34.5%
- MCV (24 h): 60 fL
- Mono (24 h): 2.4%
- Neu (24 h): 15.8%
- PT (24 h): 12.5 s
- Plat (24 h): 127.3 x10_4/uL
- RBC (24 h): 659.8 x10_4/ul
- Ret (24 h): 6.3%
- WBC (24 h): 75.3 x10_2/uL
- KIDNEY_L (24 h): 1 g
- KIDNEY_R (24 h): 1 g
- KIDNEY_TOTAL (24 h): 2 g
- LIVER (24 h): 10.9 g
- A/G (24 h): 1.5
- ALP (24 h): 1006.2 IU/L
- ALT (24 h): 34 IU/L
- AST (24 h): 66.4 IU/L
- BUN (24 h): 14.4 mg/dL
- CRE (24 h): 0.4 mg/dL
- Ca (24 h): 10.7 mg/dL
- Cl (24 h): 102.2 meq/L
- DBIL (24 h): 0.094 mg/dL
- GLC (24 h): 191.2 mg/dL
- IP (24 h): 7 mg/dL
- K (24 h): 3.9 meq/L
- LDH (24 h): 198.2 IU/L
- Na (24 h): 140 meq/L
- PL (24 h): 147.8 mg/dL
- RALB (24 h): 3.3 g/dL
- TBIL (24 h): 0.2 mg/dL
- TC (24 h): 68.4 mg/dL
- TG (24 h): 125.4 mg/dL
- TP (24 h): 5.5 g/dL
- gamma-GTP (24 h): 1 IU/L
